The source of these data is US5125099A, “Obtaining heteropolysaccharide-producing microorganism and the microorganism agrobacterium radiobacter NCIB 40018” (Shell Internationale Research Maatschappij B.V., priority 1988, dated 1992).

In one assay the test system is GBP1. Briefly: Effect of unlabelled glucose analogues on binding of [14C]glucose to GBP1, equilibrium dialysis. Set-up: species or system Agrobacterium radiobacter. On the procedure: (§1) The capacity of glucose analogues to reduce the extent of binding of D-[U-^14 C]glucose to pure proteins was determined by modifying the assay procedure as follows. One chamber of each cell contained 0.5 nmol pure protein in 0.3 ml bis-Tris, pH 6.8, and the other chamber was loaded with 0.3 ml of buffer containing 3 nmol D-[U-^14 C]glucose [85 mCi mmol^-1 (3.2 GBq mmol )] plus 120 nmol of an unlabelled glucose analogue. The quantity of [^14 C]glucose that bound to the proteins in the presence and absence of unlabelled glucose analogues was determined after 30 h incubation.
On the technique in general: Equilibrium dialysis compares concentrations on both sides of a semipermeable membrane.

For a further assay, the system named is GBP2. Briefly: Effect of unlabelled glucose analogues on binding of [14C]glucose to GBP2, equilibrium dialysis. The arrangement: species or system Agrobacterium radiobacter. The protocol: as §1
Assay [1] has as its system A. radiobacter strain AR18. Description: Effect of glucose analogues on [14C]glucose uptake by strain AR18 grown under glucose limitation. The assay is classed as cell-based, Agrobacterium radiobacter. The following applies: Agrobacterium radiobacter, AR18, pH 7; unlabelled sugars 10 mM, [14C]glucose 250M, glucose-limited culture D = 0.045 h^-1, control rate 72 nmol min^-1 (mg dry wt)^-1. The protocol: (§2) Measurement of glucose uptake. […] Assays were carried out in an open-topped Rank oxygen electrode vessel containing 1 ml 20 mM HEPES/KOH buffer, pH 7.0, and 1 mg dry wt cells. The contents of the vessel were maintained at 30° C. and mixed continuously using a magnetic stirrer. […] Samples (50 ul) of the reaction mixture were withdrawn at 15 s intervals and the cells were collected on nitrocellulose filters of 0.45 uM pore size (2.5 cm dia.; Sartorius) by means of a manifold connected to a vacuum line. The filters were washed immediately using 3 ml 20 mM HEPES, pH 7.0, dried under an infra-red lamp and then immersed in 3 ml of Fisofluor 3 scintillant (Fisons Ltd.).

Assay [2] has as its system A. radiobacter strain AR9. Description: Effect of glucose analogues on [14C]glucose uptake by strain AR9 grown under glucose limitation. The assay is classed as cell-based, Agrobacterium radiobacter. The following applies: Agrobacterium radiobacter, AR9, pH 7; unlabelled sugars 10 mM, [14C]glucose 250M, glucose-limited culture D = 0.045 h^-1, control rate 63 nmol min^-1 (mg dry wt)^-1. The protocol:
as §2

The test system of assay [3] is A. radiobacter strain AR18. Description: [14C]glucose uptake by strain AR18 grown under ammonia limitation. The assay is classed as cell-based. The following applies: Agrobacterium radiobacter, AR18, pH 7; ammonia-limited growth, forty-fold molar excess over [14C]glucose; read-out: Reduction of rate of glucose uptake by strain AR18.
Description: (§3) Measurement of glucose uptake. Rates of glucose uptake were determined by measuring the incorporation of D-[U-^14 C]glucose into whole cells over a period of 60 s. Assays were carried out in an open-topped Rank oxygen electrode vessel containing 1 ml 20 mM HEPES/KOH buffer, pH 7.0, and 1 mg dry wt cells. The contents of the vessel were maintained at 30° C. and mixed continuously using a magnetic stirrer. Assays were started by adding D-[U-^14 C]glucose [2 mCi mmol^-1 (74 MBq mmol^-1 ; 0.5 uCi (18.5 KBl)] to give a final concentration of 250 uM. Samples (50 ul) of the reaction mixture were withdrawn at 15 s intervals and the cells were collected on nitrocellulose filters of 0.45 uM pore size (2.5 cm dia.; Sartorius) by means of a manifold connected to a vacuum line. The filters were washed immediately using 3 ml 20 mM HEPES, pH 7.0, dried under an infra-red lamp and then immersed in 3 ml of Fisofluor 3 scintillant (Fisons Ltd.). The extent of incorporation of [^14 C]glucose into the cells was determined by counting the radioactivity on the filters using a Hewlett Packard Tri-Carb liquid scintillation counter (80-85% efficiency). Glucose uptake rates were measured in triplicate for each batch of cells and the standard errors never exceeded 10% of the mean values. […]
Assay [4] concerns A. radiobacter strain AR9. Description: [14C]glucose uptake by strain AR9 grown under ammonia limitation. The assay is classed as cell-based. The following applies: Agrobacterium radiobacter, AR9, pH 7; ammonia-limited growth, forty-fold molar excess over [14C]glucose; read-out: Reduction of rate of glucose uptake by strain AR9.
Description: as §3
[5] abbreviates: 0.5 nmol pure protein, 3 nmol [14C]glucose plus 120 nmol unlabelled analogue, 30 h, 4° C.
The mark [6] stands for this setting: competition with [14C]glucose in vitro, listed as D-Galactose.

`O=C[C@H](O)[C@@H](O)[C@@H](O)[C@H](O)CO` [D-galactose]: the “[14C]glucose bound GBP1” value with GBP1 (setting [5]) was 2 % control value. Moreover, the “Effect on binding of glucose to GBP1 (in words)” value in the assay on GBP1 (setting [6]) is “only effective with GBP1”. In the assay with GBP2 (setting [5]), the “[14C]glucose bound GBP2” value is given as 99 % control value. Further, in the assay with GBP2 (setting [6]), the “Effect on binding of glucose to GBP2 (in words)” value was “only effective with GBP1”. In addition, the activity at 10000 µM in assay [1] is 8%; in assay [2], 75%. For the same compound, the figures for the inhibition at 10000 µM in assay [3] and in assay [4] were roughly 95% and roughly 50%, respectively.
